From patent US11351165B2, “Agent that increases the expression of the opioid kappa 1 for the treatment of cancer” (LDN Pharma Limited, priority 2017, dated 2022)

Experiments:
Assay type in all cases: cell-based
OPRK1 [1] = assay: Level of expression of OPRK1 by immunoblotting in A549 cells; conditions: A549 lung cancer cells, 1 nM to 10 μM for 48 h
Method: (§1) In order to determine the effect of 6-β-naltrexol or naltrexone on the level of expression of OPRK1, A549 lung cancer or HCT116 colon cancer cells were seeded onto 6-well plates at a density of 2×10^5 cell/well, and allowed to adhere overnight. Cells were then cultured in the presence of naltrexone or 6-β-naltrexol at concentrations of 1 nM, 10 nM, 100 nM, 1 μM or 10 μM for a further 48 h. Cells were then harvested and processed for measurements of OPRK1, opioid receptor-μ1 (OPRM1) and GAPDH using standard immunoblotting techniques.

OPRK1 [2] = assay: Level of expression of OPRK1 by immunoblotting in HCT116 cells; conditions: HCT116 colon cancer cells, 1 nM to 10 μM for 48 h
Method: as §1

A549 cells = assay: Priming with 6-β-naltrexol, then chemotherapy agent; cell number and viability by trypan blue counting, A549; conditions: FIG. 2c
Method: (§2) The impact of combining 6-β-naltrexol with other chemotherapy agents was tested by culturing cells according to a treatment schedule that involved two phases of treatment. The first phase involved priming with 10 nM 6-β-naltrexol or 10 μM 6-β-naltrexol for 48 h, before treatment with another drug for a further 48 h. A549 and HCT116 cells were seeded into 6-well plates at a density of 2×10^5 cells/well and left to adhere overnight. Media was removed after 48 h, and cells were rinsed gently with drug-free medium. Fresh culture medium that contained gemcitabine (GEM) or oxaliplatin (OXP) was then added to the cells. The concentrations of the chemotherapy agents used were approximately ¼ IC50, as established previously [Liu W M, Fowler D W, Smith P, Dalgleish A G. Pre-treatment with chemotherapy can enhance the antigenicity and immunogenicity of tumours by promoting adaptive immune responses. Br J Cancer. 2010 Jan. 5; 102(1):115-23. doi: 10.1038/sj.bjc.6605465.]. Cells were then left for a further 48 h before assessment of cell number of viability by cell counting using trypan blue dye as a way of discriminating live and dead cells. Cytostasis was indicated by a reduction in cell number and no associated reduction in cell viability.

HCT116 cells = assay: Priming with 6-β-naltrexol, then chemotherapy agent; cell number and viability by trypan blue counting, HCT116; conditions: FIG. 2d
Method: as §2

[3] = 10 nM or 10 μM 6-β-naltrexol 48 h, then gemcitabine or oxaliplatin at approx. 1/4 IC50 for 48 h
[4] = 10 nM or 10 μM 6-β-naltrexol alone (6BN-0)

| SMILES | level of expression of OPRK1 (OPRK1 [1]) | level of expression of OPRK1 (OPRK1 [2]) | cytotoxic effect of chemotherapeutic agents after priming (A549 cells; [3]) | cytotoxicity of the agent alone (A549 cells; [4]) | cytotoxic effect of chemotherapeutic agents after priming (HCT116 cells; [3]) | cytotoxicity of the agent alone (HCT116 cells; [4]) |
| --- | --- | --- | --- | --- | --- | --- |
| Oc1ccc2c3c1OC1[C@H](O)CC[C@@]4(O)[C@@H](C2)N(CC2CC2)CC[C@]314 (stereo partly drawn) [6-β-naltrexol, 17-(Cyclopropylmethyl)-4,5-epoxymorphinan-3,6 beta,14-triol] | increase the level of expression of ORPK1 | increases the level of expression of OPRK1 | cytotoxic effect of both chemotherapeutic agents is increased | absence of any independent increase in cytotoxicity | cytotoxic effect of both chemotherapeutic agents is increased | absence of any independent increase in cytotoxicity |
| O=C1CC[C@@]2(O)[C@H]3Cc4ccc(O)c5c4[C@@]2(CCN3CC2CC2)[C@H]1O5 [naltrexone, reference compound] | increase the level of expression of ORPK1 | down-regulates the level of expression of OPRK1 | – | – | – | – |
